Measurements reported in US20250340561A1, “QUINAZOLINE COMPOUND FOR INDUCING DEGRADATION OF G12D MUTANT KRAS PROTEIN” (Astellas Pharma Inc., priority 2021, published 2025).
Where two headings read alike, the source gives them in different places.

Tests used:
[1] = tested on: phosphorylation of ERK (Thr202/Tyr204); assay: Test Example 2: ERK phosphorylation inhibition action in AsPC-1, Cell ELISA; format: cell-based, human; conditions: AsPC-1 cells, 0% = 1 μM trametinib
Procedure: Test Example 2: Evaluation of ERK Phosphorylation Inhibition Action on Human G12D Mutant KRAS-Positive Pancreatic Cancer Line AsPC-1
The ERK phosphorylation inhibition action of test compounds was evaluated by measuring phosphorylation of the 202th threonine (Thr202) and the 204th tyrosine (Tyr204) of ERK located downstream of the KRAS signal by Cell ELISA.
AsPC-1 cells were seeded on a 384-well plate (from Greiner bio-one) at 36 μL/well to give 2.0×10^4 cells per well. As for the cell culture conditions, a RPMI 1640 medium containing 10% fetal bovine serum was used in the presence of 5% CO2 at 37° C.
The next day, the test compounds (6 points having final concentrations in the range of 10 μM to 3.0 nM), trametinib (MEK inhibitor) of a final concentration of 1 μM as a positive control and DMSO, which was the solvent for the test compounds, as a negative control were diluted 100-fold with a fresh medium and were added at 4 μL per well. The cells were then cultured for 24 hours. After culturing, a 30% glyoxal solution (40% glyoxal [from Nacalai Tesque] was diluted with PBS) was quickly added at 30 μL per well, and the plate was allowed to stand for 90 minutes at room temperature to thus immobilize the cells. Then, the plate was centrifuged to remove the supernatant (using a centrifugal dehydrator machine, the supernatant was removed by the same method hereinafter), and 0.1% Triton X-100-containing PBS was added at 20 μL per well. After allowing to stand for 10 minutes at room temperature, the supernatant was removed by centrifugation, and the same operation was further repeated. Next, 0.5% SDS-containing PBS was added at 20 μL per well, and after allowing to stand at room temperature for 30 minutes, the supernatant was removed by centrifugation. Subsequently, a blocking solution (Intercept Blocking Buffer) was added at 20 μL per well, and the plate was allowed to stand for 1 hour at room temperature. The supernatant was removed by centrifugation, and an ERK (Thr202/Tyr204) phosphorylation antibody (Phospho-p44/42 MAPK (Erk 1/2) (Thr202/Tyr204) (D13.14.4E) XP Rabbit mAb; from Cell Signaling Technology) diluted 2,500-fold with a blocking solution was added at 10 or 15 μL per well as a primary antibody. The plate was allowed to stand at 4° C. overnight.
The next day, the plate was centrifuged to remove the supernatant. 0.05% Tween-20-containing PBS was added at 50 μL per well, and the supernatant was removed by centrifugation to thus wash each well. The washing was performed three times in total. After washing, Goat anti-Rabbit IgG H&L (IRDye 800CW) diluted 1,000-fold with a blocking solution was added at […] as a secondary antibody, and the plate was allowed to stand for 1 hour at room temperature. The plate was centrifuged to remove the supernatant, and each well was washed three times with 0.05% Tween-20-containing PBS in the same manner as after the primary antibody reaction. After removing the supernatant by centrifuging the plate, the plate was dried as it was with air at room temperature for 3 hours or more, and the 800-nm fluorescent signals were measured with Aerius.
With the signaling value at the time of addition of DMSO taken as 100% and with the signaling value at the time of addition of 1 μM trametinib taken as 0%, the 50% inhibition values (IC50) were calculated by Sigmoid-Emax model nonlinear regression analysis. The molecular weights of the test compounds were calculated as the molecular weights of the dihydrochloride for Example No. 22, the trihydrochlorides for Example Nos. 2-7, 9-12, 14-18 and 30, the tetrahydrochlorides for Example Nos. 19 and 46, the pentahydrochloride for Example No. 21 and the free forms forming no salt for the remaining Example Nos. The results for some test compounds of the formula (I) are shown in Table 3.

[2] = tested on: human G12D mutant KRAS-positive pancreatic cancer line AsPC-1; assay: Test Example 3: non-anchorage-dependent cell growth inhibition, spheroid 3D cell culture; format: cell-based; conditions: AsPC-1 spheroid 3D culture, 6 days, CellTiter Glo 2.0
Procedure: Test Example 3: Evaluation of Non-Anchorage-Dependent Cell Growth Inhibition Action on Human G12D Mutant KRAS-Positive Pancreatic Cancer Line AsPC-1
The non-anchorage-dependent cell growth inhibition action of test compounds was evaluated by spheroid 3D cell culture.
AsPC-1 cells were seeded on a low-cell-adhesive round bottom 384-well plate (PrimeSurface: from Sumitomo Bakelite) at 36 μL/well to give 5×10^2 cells per well. The cell culture was performed under the same conditions as in the Test Example 2.
The next day, the test compounds (6 points having final concentrations in the range of 10 μM to 3.0 nM) and DMSO, which was the solvent for the test compounds, as a negative control were diluted 100-fold with a fresh medium and were added at 4 μL per well. After culturing in the presence of […] at 37° C. for 6 days, CellTiter Glo 2.0 (from Promega) was added at 20 μL per well. After stirring with a plate mixer (from FINEPCR) at normal temperature for 1 hour, the luminescent signals were measured with ARVO X3 (from PerkinElmer).
With the signaling value in treatment with DMSO taken as […] and with the signaling value in the medium alone without cells taken as […], the […] inhibition values (IC50) were calculated by Sigmoid-Emax model nonlinear regression analysis. The molecular weights of the test compounds were calculated as the molecular weights of the dihydrochloride for Example No. 22, the trihydrochlorides for Example Nos. 2-7, 9-12, 14-18 and 30, the tetrahydrochlorides for Example Nos. 19 and 46, the pentahydrochloride for Example No. 21 and the free forms forming no salt for the remaining Example Nos. The results for some test compounds of the formula (I) are shown in Table 4.

[3] = Homo sapiens, ASPC1, 24 h, read-out: IC50
[4] = Homo sapiens, ASPC1, 144 h, read-out: IC50

Row | SMILES | IC50 ([1]; Homo sapiens, ASPC1, 24 h) [nM] | IC50 ([2]; Homo sapiens, ASPC1, 144 h) [nM] | other results
1 | Cc1ncsc1-c1ccc([C@H](CO)NC(=O)[C@@H]2C[C@@H](O)CN2C(=O)[C@H](C(C)C)n2cc(-c3ccc(COc4c(-c5c(C)c(F)cc6[nH]ncc56)c(C5CC5)cc5c(N6C[C@@H]7C[C@H]6CN7)nc(OC[C@@H]6CCCN6C)nc45)cc3)nn2)cc1 [Example 57] |  |  | IC50 [1, 3]: 65 nM; IC50 [2, 4]: 90 nM
2 | CCn1nccc1-c1ccc([C@H](CO)NC(=O)[C@@H]2C[C@@H](O)CN2C(=O)[C@H](C(C)C)n2cc(-c3ccc(COc4c(-c5c(C)c(F)cc6[nH]ncc56)c(C5CC5)cc5c(N6C[C@@H]7C[C@H]6CN7)nc(OC[C@H](C)OC)nc45)cc3)nn2)cc1 [Example 70] |  |  | IC50 [1, 3]: 12 nM; IC50 [2, 4]: 21 nM
3 | Cc1ncsc1-c1ccc([C@H](CO)NC(=O)[C@@H]2C[C@@H](O)CN2C(=O)[C@H](C(C)C)n2cc(-c3ccc(COc4c(-c5c(C)c(F)cc6[nH]ncc56)c(C5CC5)cc5c(N6C[C@@H]7C[C@H]6CN7)nc(OC6CCOCC6)nc45)cc3)nn2)cc1 [Example 8, (4R)-1-[(2S)-2-(4-{4-[({6-cyclopropyl-4-[(1S,4S)-2,5-diazabicyclo[2.2.1]heptan-2-yl]-7-(6-fluoro-5-methyl-1H-indazol-4-yl)-2-[(oxan-4-yl)oxy]quinazolin-8-yl}oxy)methyl]phenyl}-1H-1,2,3-triazol-1-yl)-3-methylbutanoyl]-4-hydroxy-N-{(1R)-2-hydroxy-1-[4-(4-methyl-1,3-thiazol-5-yl)phenyl]ethyl}-L-prolinamide] |  |  | IC50 ([1]; 24 hours, read-out: IC50): 15 nM; IC50 ([2]; read-out: IC50): 23 nM
4 | CCn1nccc1-c1ccc([C@H](CO)NC(=O)[C@@H]2C[C@@H](O)CN2C(=O)[C@H](C(C)C)n2cc(-c3ccc(COc4c(-c5c(C)c(F)cc6[nH]ncc56)c(C5CC5)cc5c(N6C[C@@H]7C[C@H]6CN7)nc(OC6CCOCC6)nc45)cc3)nn2)cc1 [Example 26] | 8 | 20 | 
5 | CCOc1nc(N2C[C@@H]3C[C@H]2CN3)c2cc(C3CC3)c(-c3c(C)c(F)cc4[nH]ncc34)c(OCc3ccc(C(=O)N[C@H](C(=O)N4C[C@H](O)C[C@H]4C(=O)N[C@@H](CO)c4ccc(-c5scnc5C)cc4)C(C)C)cc3)c2n1 [Example 5] | 97 | 169 | 
6 | Cc1c(F)cc2[nH]ncc2c1-c1c(C2CC2)cc2c(N3C[C@@H]4C[C@H]3CN4)nc(OC3CCOCC3)nc2c1OCc1ccc(-c2cn([C@H](C(=O)N3C[C@H](O)C[C@H]3C(=O)N[C@@H](CO)c3ccccc3)C(C)C)nn2)cc1 (atropisomer, axis not shown) [Example 14] | 63 | 153 | 
7 | Cc1ncsc1-c1ccc([C@H](C)NC(=O)[C@@H]2C[C@@H](O)CN2C(=O)[C@H](C(C)C)n2cc(-c3ccc(COc4c(-c5c(C)c(F)cc6[nH]ncc56)c(C5CC5)cc5c(N6C[C@@H]7C[C@H]6CN7)nc(OC6CCOCC6)nc45)cc3)nn2)cc1 [Example 9] | 18 | 96 | 
8 | Cc1ncsc1-c1ccc([C@H](CO)NC(=O)[C@@H]2C[C@@H](O)CN2C(=O)[C@H](C(C)C)n2cc(-c3ccc(COc4c(-c5c(C)c(F)cc6[nH]ncc56)c(C5CC5)cc5c(N6C[C@@H]7C[C@H]6CN7)nc(NCCO)nc45)cc3)nn2)cc1 [Example 66] |  |  | IC50 [1, 3]: 114 nM; IC50 [2, 4]: 360 nM
9 | Cc1ncsc1-c1ccc([C@H](CO)NC(=O)[C@@H]2C[C@@H](O)CN2C(=O)[C@H](C(C)C)n2cc(-c3ccc(COc4c(-c5c(C)c(F)cc6[nH]ncc56)c(C5CC5)cc5c(N6C[C@@H]7C[C@H]6CN7)nc(OCC6(CO)CC6)nc45)cc3)nn2)cc1 [Example 61] | 24 | 61 | 
10 | COC[C@H](C)Oc1nc(N2C[C@@H]3C[C@H]2CN3)c2cc(C3CC3)c(-c3c(C)c(F)cc4[nH]ncc34)c(OCc3ccc(-c4cn([C@H](C(=O)N5C[C@H](O)C[C@H]5C(=O)N[C@@H](CO)c5ccc(-c6scnc6C)cc5)C(C)C)nn4)cc3)c2n1 [Example 54] | 18 | 24 | 
11 | CO[C@H](C)[C@@H](C)Oc1nc(N2C[C@@H]3C[C@H]2CN3)c2cc(C3CC3)c(-c3c(C)c(F)cc4[nH]ncc34)c(OCc3ccc(-c4cn([C@H](C(=O)N5C[C@H](O)C[C@H]5C(=O)N[C@@H](CO)c5ccc(-c6scnc6C)cc5)C(C)C)nn4)cc3)c2n1 [Example 39] | 6 | 18 | 
12 | Cc1ncsc1-c1ccc([C@H](CO)NC(=O)[C@@H]2C[C@@H](O)CN2C(=O)[C@@H](NC(=O)c2ccc(COc3c(-c4c(C)c(F)cc5[nH]ncc45)c(C4CC4)cc4c(N5C[C@@H]6C[C@H]5CN6)nc(OC5CCOCC5)nc34)cc2)C(C)C)cc1 [Example 3] | 62 | 108 | 
13 | Cc1ncsc1-c1ccc([C@H](CO)NC(=O)[C@@H]2C[C@@H](O)CN2C(=O)[C@H](C(C)C)n2cc(-c3ccc(COc4c(-c5c(C)c(F)cc6[nH]ncc56)c(C5CC5)cc5c(N6C[C@@H]7C[C@H]6CN7)nc(OC[C@H]6CCCN6C)nc45)cc3)nn2)cc1 [Example 60] | 50 | 127 | 
14 | Cc1c(F)cc2[nH]ncc2c1-c1c(C2CC2)cc2c(N3C[C@@H]4C[C@H]3CN4)nc(OC3CCOCC3)nc2c1OCc1ccc(-c2cn([C@H](C(=O)N3C[C@H](O)C[C@H]3C(=O)N[C@@H](CO)c3ccc(F)cc3)C(C)C)nn2)cc1 [Example 13] | 29 | 74 | 
15 | Cc1ncsc1-c1ccc([C@H](CO)NC(=O)[C@@H]2C[C@@H](O)CN2C(=O)[C@H](C(C)C)n2cc(-c3ccc(COc4c(-c5c(C)c(F)cc6[nH]ncc56)c(C5CC5)cc5c(N6C[C@@H]7C[C@H]6CN7)nc(O[C@H](C)CN(C)C)nc45)cc3)nn2)cc1 [Example 46] | 22 | 56 | 
16 | Cc1ncsc1-c1ccc([C@@H](CO)NC(=O)[C@@H]2C[C@@H](O)CN2C(=O)[C@H](C(C)C)n2cc(-c3ccc(COc4c(-c5c(C)c(F)cc6[nH]ncc56)c(C5CC5)cc5c(N6C[C@@H]7C[C@H]6CN7)nc(OC6CCOCC6)nc45)cc3)nn2)cc1 [Example 68] |  |  | IC50 [1, 3]: 2210 nM; IC50 [2, 4]: 1630 nM
17 | Cc1c(F)cc2[nH]ncc2c1-c1c(C2CC2)cc2c(N3C[C@@H]4C[C@H]3CN4)nc(OC3CCOCC3)nc2c1OCc1ccc(-c2cn([C@H](C(=O)N3C[C@H](O)C[C@H]3C(=O)N[C@@H](CO)c3cccc(S(C)(=O)=O)c3)C(C)C)nn2)cc1 [Example 67] |  |  | IC50 [1, 3]: 758 nM; IC50 [2, 4]: 975 nM
